In patent publication US9161925B2, “Therapeutic uses of beta-3 adrenergic receptor agonist derivatives in particular to modulate apoptosis” (SANOFI, priority 2007, dated 2015):

Tests used:
Assay type in all cases: cell-based, human
[1] = system: cleaved caspase-3 protein; test: Western blot of cleaved caspase-3 in myometrial strips stimulated with LPS
Procedure: (§1) Myometrial biopsies obtained from women with uncomplicated pregnancies were immediately transferred in sterile Dubelcco's Modified Eagle Medium (DMEM) and washed twice with sterile Phosphate Buffer Saline (PBS). Biopsies were cut into small strips, each being placed in a 24-well plate containing 2 ml of culture medium DMEM, without the use of antibiotics. Strips were then incubated at 37° C. with 5% CO2 for 48 h in order to allow cytokine levels to return to basal values (Fortunato S J, et al. Am J Reprod Immunol 1994; 32: 184-187). […]
(§2) Snap-frozen myometrial tissues were homogenized with Ultra-Turrax in homogenization buffer [10 mM Tris-HCl (pH 7.4), 1 mM EDTA, […] leupeptine, 2 mM Pefabloc]. After an initial centrifugation at 500×g for 15 min at 4° C., total protein supernatant content was determined by the Bradford method with BSA as standard. […] Immunoreactive proteins were detected by chemiluminescence (ECL™ detection reagents, RPN2105, Amersham, USA) and exposure to a X-ray film (Hyperfilm™, Amersham Bioscience, USA). The intensities of the bands were analyzed densitometrically using the NIH Image 1.62 program and normalized with intensity of bands obtained with monoclonal antibody to Glyceraldehyde 3-Phosphate Dehydrogenase (GAPDH) used as protein loading control. Results are expressed as the mean±s.e.m. in Arbitrary Density Unit (A.D.U).

BAX protein = test: Western blot of BAX in myometrial strips stimulated with LPS
Procedure: as §1, §2

BCL2 protein = test: Western blot of BCL2 in myometrial strips stimulated with LPS
Procedure: as §1, §2

caspase-3 transcripts = test: Real time quantitative RT-PCR of caspase-3 transcripts in myometrial tissue; details: LPS alone 2.08±0.63
Procedure: (§3) Myometrial biopsies obtained from women with uncomplicated pregnancies were immediately transferred in sterile Dubelcco's Modified Eagle Medium (DMEM) and washed twice with sterile Phosphate Buffer Saline (PBS). Biopsies were cut into small strips, each being placed in a 24-well plate containing 2 ml of culture medium DMEM, without the use of antibiotics. Strips were then incubated at 37° C. with 5% CO2 for 48 h in order to allow cytokine levels to return to basal values (Fortunato S J, et al. Am J Reprod Immunol 1994; 32: 184-187).
In order to reproduce with LPS (Escherichia coli 055:B5) the findings on myometrial samples obtained from women with chorioamnionitis, myometrial strips were incubated with three different concentrations of LPS (50 ng/ml, 1 μg/ml and 10 μg/ml) at three different times (8 h, 24 h, 48 h). In a second set of experiments, in order to assess the role of TNF in LPS-induced apoptosis in myometrial tissue, the strips were incubated with LPS 10 μg/ml for 48 h with or without anti TNF antibodies (0.6 μg/ml) (Human TNF alpha/TNFSF1A antibody, R&D systems Europe, Lille, France, the concentration of the antibody used was chosen based on the manufacturer's recommendations). […]
Total RNA was prepared from 5 myometrial tissues obtained from 5 different women, using Trizol solution (Life Technologies, Groningen, The Netherlands) according to the manufacturer's instructions. […] Real time quantitative PCR analyses were performed using 25 ng of reverse transcribed total RNA with 200 nM of both sense and anti sense primers in a final volume of 25 μl using the SYBR Green PCR jumpstart reagent (Sigma, Saint Louis, Mo., USA) in an iCycler iQ real time detection system instrument (Bio-Rad, Marnes-la-Coquette, France). PCR products were also analyzed on edithium bromide stained agarose gel to ensure that a single amplicon of the expected size was indeed obtained. […]

IL6 = test: Cytometric Bead Array, IL6 in supernatants of myometrial strips
Procedure: as §3
(§4) In order to reproduce with LPS (Escherichia coli 055:B5) the findings on myometrial samples obtained from women with chorioamnionitis, myometrial strips were incubated with three different concentrations of LPS (50 ng/ml, 1 μg/ml and 10 μg/ml) at three different times (8 h, 24 h, 48 h). […]
(§5) Cytokines measurements were determined by Cytometric Bead Array (CBA; Bender MedSystems). Supernatants of 5 myometrial strips were incubated with labeled capture beads and detection reagent for 3 h in the dark at room temperature, and analyzed with a flow cytometer (FACSCalibur; BD Biosciences) by using the respective CBA Analysis software (BD Biosciences) and Bender MedSystems software. Cytokine standards for quantification (pg/mL) as well as the blanks were handled in the same manner as the samples. […]

IL8 = test: Cytometric Bead Array, IL8 in supernatants of myometrial strips
Procedure: as §3, §4, §5

[2] = tissues not stimulated with LPS (data not shown)
[3] = Compound A 10^-7, 10^-6, 10^-5 M with LPS 10 μg/ml 48 h, ANOVA P<0.01, FIG. 4

SMILES: CCOC(=O)c1ccc([C@H]2CC[C@H](NC[C@H](O)COc3ccc(O)c(NS(C)(=O)=O)c3)CC2)cc1.Cl [Compound A, Ethyl-4-{trans-4-[((2S)-2-hydroxy-3-{4-hydroxy-3[(methylsulfonyl)-amino]phenoxy}propyl)amino]cyclohexyl}benzoate hydrochloride]
- antagonism of LPS-induced changes in cleaved caspase-3 expression ([1]; Compound A 10^-7, 10^-6, 10^-5 M with LPS 10 μg/ml 48 h, concentration dependent, ANOVA P<0.001, FIG. 3): significantly antagonize
- effect by itself on cleaved caspase-3 expression [1, 2]: no effect
- antagonism of LPS-induced BAX protein up-regulation (BAX protein; [3]): antagonized in a concentration dependant manner
- effect by itself on BAX expression (BAX protein; [2]): no effect
- antagonism of LPS-induced BCL2 protein down-regulation (BCL2 protein; [3]): antagonized in a concentration dependant manner
- effect by itself on BCL2 expression (BCL2 protein; [2]): no effect
- caspase-3 transcripts, fold increase normalized to GAPDH compared with controls (caspase-3 transcripts; LPS with Compound A 10^-5 M): 0.93±0.41 fold
- caspase-3 transcripts, fold increase normalized to GAPDH compared with controls (caspase-3 transcripts; LPS with Compound A 10^-6 M): 0.84±0.53 fold
- caspase-3 transcripts, fold increase normalized to GAPDH compared with controls (caspase-3 transcripts; LPS with Compound A 10^-7 M): 1.17±0.81 fold
- effect on LPS-induced IL6 (IL6; Compound A with LPS, concentration dependent, not statistically significant, FIG. 5): decreased
- effect by itself on IL6 release (IL6; [2]): not effect
- effect on LPS-induced IL8 (IL8; Compound A with LPS, concentration dependent, ANOVA P=0.01, FIG. 5): decreased
- effect by itself on IL8 release (IL8; [2]): not effect
